{
  "source": "patent US10744114B2",
  "about": "“Use of eupatilin as pharmaceutical composition for prevention and treatment of fibrosis using EMT inhibitory activity” (OSTEONEUROGEN INC., priority 2016, dated 2020)",
  "test_system": "ONGHEPA1 cells",
  "assay": "TGF-β-induced fibrosis of ONGHEPA1 cells (microscope)",
  "type": "cell-based, mouse",
  "details": "24 hr; for inhibition of the progress of fibrosis (differentiation into myofibroblasts): TGF-β 5 ng/mL plus 50 μM compound; for toxicity to ONGHEPA1 cells: TGF-β plus 50 μM compound",
  "source_text": "The liver tissue was separated from C57BL/6 mice and a single-cell suspension thereof was made, and immortalized cells were obtained through continuous culture and were confirmed to be mesenchymal stem cells (MSC) of HSC via RT-PCR (Reverse Transcription Polymerase Chain Reaction) using MC (Immunohistochemistry) and FACS (Fluorescence-Activated Cell Sorting). This cell line was called “ONGHEPA1”, and was deposited with the Korean Collection for Type Cultures (KCTC) of the Korea Research Institute of Bioscience and Biotechnology and assigned accession number KCTC13086BP.\nUsing such properties of HSC, the fibrotic characteristics of ONGHEPA1 were measured. To induce fibrosis, TGF-β (transforming growth factor beta) was added, and the morphologies of the cells were observed after 6 hr, 12 hr, 24 hr, and 48 hr. Consequently, fibrosis was confirmed to progress considerably after 24 hr and further progress after 48 hr (A of FIG. 6).\nWhile ONGHEPA1 cells were incubated, they were treated with TGF-β to induce fibrosis, and 50 μM of eupatilin was added to the culture medium.\nIn order to more clearly evaluate the effect of eupatilin as above, changes were measured when ONGHEPA1 cells were first treated with eupatilin, washed to remove eupatilin and then treated with TGF-β to induce fibrosis. […] This means that eupatilin is directly associated with the course of fibrosis to thus inhibit the progress of fibrosis.\nOn the contrary, changes were measured when ONGHEPA1 cells were first treated with TGF-β to induce fibrosis, washed to remove TGF-β and then treated with eupatilin. […] Even when fibrosis was already progressed, eupatilin was able to restore the cells to their original normal condition.\nIn order to more clearly evaluate whether eupatilin was able to restore the cells that already undergone fibrosis to normal cells, changes were measured when ONGHEPA1 cells were treated with TGF-β for 24 hr to induce complete fibrosis and then treated with eupatilin. […] This means that fibrosis that has progressed considerably can be effectively treated using eupatilin.\nThe effects of various chromone derivatives other than eupatilin on fibrosis were measured in the same manner as in Example 3-3. While ONGHEPA1 cells were incubated, fibrosis was induced by TGF-β, and a chromone derivative was added at a concentration of 50 μM to the culture medium.",
  "data": [
    {"smiles": "COc1cc2oc(-c3ccc(O)cc3)cc(=O)c2c(O)c1OC", "note": "[ONGC200, 5-hydroxy-2-(4-hydroxyphenyl)-6,7-dimethoxy-chromone]", "values": [
      {"measurement": "inhibition of the progress of fibrosis (differentiation into myofibroblasts)", "result": "effective at inhibiting the progress of fibrosis"}
    ]},
    {"smiles": "COc1c(O)cc(O)c2c(=O)cc(-c3ccccc3)oc12", "note": "[wogonin, reference compound]", "values": [
      {"measurement": "inhibition of the progress of fibrosis (differentiation into myofibroblasts)", "result": "no effects or very low effects"},
      {"measurement": "inhibition of the progress of fibrosis (differentiation into myofibroblasts)", "setting": "listed as Chemical Formula 9", "result": "no effects on the inhibition of fibrosis"}
    ]},
    {"smiles": "COc1ccc(-c2oc3cc(O)c(OC)c(O)c3c(=O)c2OC)cc1O", "note": "[ONGD400]", "values": [
      {"measurement": "toxicity to ONGHEPA1 cells", "result": "toxicity such as necrosis"}
    ]},
    {"smiles": "COc1c(-c2ccccc2)oc2c(OC)c(O)cc(O)c2c1=O", "note": "[ONGA100]", "values": [
      {"measurement": "inhibition of the progress of fibrosis (differentiation into myofibroblasts)", "result": "no effects or very low effects"},
      {"measurement": "inhibition of the progress of fibrosis (differentiation into myofibroblasts)", "setting": "listed as Chemical Formula 8", "result": "no effects on the inhibition of fibrosis"}
    ]},
    {"smiles": "COc1c(-c2ccc(O)cc2)oc2cc(O)cc(O)c2c1=O", "note": "[ONGB200]", "values": [
      {"measurement": "inhibition of the progress of fibrosis (differentiation into myofibroblasts)", "result": "no effects or very low effects"},
      {"measurement": "inhibition of the progress of fibrosis (differentiation into myofibroblasts)", "setting": "listed as Chemical Formula 10", "result": "no effects on the inhibition of fibrosis"}
    ]},
    {"smiles": "COc1cc2oc(-c3ccc(O)c(O)c3)cc(=O)c2c(O)c1OC", "note": "[ONGH200, 2-(3,4-dihydroxyphenyl)-5-hydroxy-6,7-dimethoxy-chromone]", "values": [
      {"measurement": "inhibition of the progress of fibrosis (differentiation into myofibroblasts)", "result": "effective at inhibiting the progress of fibrosis"},
      {"measurement": "inhibition of the progress of fibrosis (differentiation into myofibroblasts)", "setting": "listed as Chemical Formula 7", "result": "superior fibrosis-inhibiting effects"}
    ]},
    {"smiles": "O=c1cc(-c2ccc(O)c(O)c2O)oc2cc(O)cc(O)c12", "note": "[ONGE300]", "values": [
      {"measurement": "inhibition of the progress of fibrosis (differentiation into myofibroblasts)", "result": "no effects or very low effects"},
      {"measurement": "inhibition of the progress of fibrosis (differentiation into myofibroblasts)", "setting": "listed as Chemical Formula 11", "result": "no effects on the inhibition of fibrosis"}
    ]},
    {"smiles": "COc1c(O)cc2oc(-c3ccc(O)cc3)cc(=O)c2c1O", "note": "[ONGE200, 5,7-dihydroxy-2-(4-hydroxyphenyl)-6-methoxy-chromone]", "values": [
      {"measurement": "inhibition of the progress of fibrosis (differentiation into myofibroblasts)", "result": "effective at inhibiting the progress of fibrosis"},
      {"measurement": "inhibition of the progress of fibrosis (differentiation into myofibroblasts)", "setting": "listed as Chemical Formula 5", "result": "superior fibrosis-inhibiting effects"}
    ]},
    {"smiles": "COc1cc(-c2oc3cc(O)c(OC)c(O)c3c(=O)c2OC)ccc1O", "note": "[ONGH300]", "values": [
      {"measurement": "toxicity to ONGHEPA1 cells", "result": "toxicity such as necrosis"}
    ]},
    {"smiles": "COc1c(O)cc2oc(-c3ccc(O)c(O)c3)cc(=O)c2c1O", "note": "[ONGI300, 2-(3,4-dihydroxyphenyl)-5,7-dihydroxy-6-methoxy-chromone]", "values": [
      {"measurement": "inhibition of the progress of fibrosis (differentiation into myofibroblasts)", "result": "effective at inhibiting the progress of fibrosis"},
      {"measurement": "inhibition of the progress of fibrosis (differentiation into myofibroblasts)", "setting": "listed as Chemical Formula 3", "result": "superior fibrosis-inhibiting effects"}
    ]},
    {"smiles": "COc1ccc(-c2cc(=O)c3c(O)c(O)c(O)cc3o2)cc1", "note": "[ONGD200]", "values": [
      {"measurement": "toxicity to ONGHEPA1 cells", "result": "toxicity such as necrosis"}
    ]}
  ]
}
